The text below walks through data of publication PMC4792161, “A novel pyrazole derivative protects from ovariectomy-induced osteoporosis through the inhibition of NADPH oxidase” (Scientific Reports, 2016).

Counter-ions that a name gives are not always drawn.

The test system of data set [1] is BMMs. In words: RANKL-induced intracellular ROS generation (DCF fluorescence). It is filed as cell-based, C57BL/6 mice. The text has this:
(§1) RANKL-induced ROS generation was monitored by confocal microscopic analysis of DCF fluorescence. Data represent three repeated experiments and are shown as mean ± SD (n = 3). […] (D) TRAP^+ MNCs containing more than 3 nuclei were counted. Data represent mean ± S.D., *P < 0.005. Scale bar, 500 μm.
DCF-DA is oxidized by ROS to the highly fluorescent DCF. After washed with HBSS, the cells were then examined with a laser scanning confocal microscope (LSM510; Zeiss) equipped with an argon laser tuned to an excitation wavelength of 488 nm, an LP505 emission filter (515–540 nm), and a Zeiss Axiovert objective lens. Images were digitized and stored at a resolution of 512 by 512 pixels. Five groups of cells were randomly selected from each sample, and the mean relative fluorescence intensity for each group of cells was measured with a Zeiss vision system and then averaged for all groups. All experiments were repeated at least three times.

The subject of data set [2] is BMMs. In words: RANKL-induced signaling, immunoblot of phospho-ERK, p38, JNK, IκBα. The format is cell-based, C57BL/6 mice. The following applies: BMMs pretreated 1 hour. The text has this:
Data represent mean ± SD. […] Actin serves as a loading control.
(Immunoblotting shows a protein as a band on a membrane.)

The test system of data set [3] is Mature OCs. Briefly: Bone resorption assay on dentine discs. The format is cell-based, C57BL/6 mice. The following applies: 10 μM, 24 hours. The method, then:
The cells were removed from the dentine discs and the dentine discs were stained with hematoxylin. Pit areas were photographed under a light microscope and analyzed using Image-Pro Plus version 4.5 software (Media-Cybernetics, Rockville, MD, USA). […]
Scale bar, 500 μm. (C,D) Mature OCs were generated with M-CSF and RANKL, cells were seeded onto dentine discs and further cultured with […]
Cells were stained with hematoxylin for visualization of pit formation (C). The area of resorption pits were measured with Image-Pro Plus 4.5 (D). Scale bar, 500
μm. Data represent mean ± S.D., n.s., not significant. […]

Data set [4] relates to BMMs. Briefly: RANKL-induced OC differentiation, TRAP staining. The format is cell-based, C57BL/6 mice. The following applies: M-CSF 30 ng/ml, RANKL 100 ng/ml, dose-dependent. The method, then:
as §1
Primary BMMs were obtained from 6- to 8-week-old male C57BL/6 mice (The Jackson Laboratory, Bar Harbor, […], USA) as described previously. In brief, bone marrow cells were cultured in α-MEM (HyClone, Logan, UT, USA) containing 10% fetal bovine serum (FBS) (HyClone, Logan UT, USA) with 30 ng/ml macrophage-colony stimulating facor (M-CSF) for 3 days to obtain OC precursor cells of monocyte/macrophage lineage. For OC differentiation, the precursor cells were treated with 100 ng/ml RANKL in the presence of M-CSF with or without for 3–4 days. OCs were fixed with 4% paraformaldehyde and stained for tartrate-resistant acid phosphatase (TRAP) using a leukocyte acid phosphatase cytochemistry kit (Sigma-Aldrich, St. Louis, MO, USA) according to the manufacturer’s instructions. TRAP-positive multinucleated cells (TRAP^+ MNCs) containing three or more nuclei were counted as OC-like cells.

Data set [5] in a line: Pharmacokinetics after IV and oral administration to rats. It is filed as in vivo. The protocol: Supplementary Table S1. Pharmacokinetic parameters of Ewha-89403 following IV and oral administration at the doses of 1 mg/kg and 10 mg/kg, respectively, to rats (n=4-5) PK Parameters IV Injection Oral Administration
Absolute Bioavailability (BA) = 4.3 %
Supplementary Table S2. Pharmacokinetic parameters of Ewha-18278 following IV and oral administration at the doses of 2 mg/kg and 20 mg/kg, respectively, to rats (n=5-6) […]
Absolute Bioavailability (BA) = 63.8 %

Data set [6] relates to OVX-induced osteoporotic ddY mice. In words: Right femur BMD by DEXA in OVX mice. It is filed as in vivo. The following applies: oral once daily 28 days.
Data set [7] is described as follows: Body weight changes in OVX mice. The format is in vivo, ddY mice. The following applies: risedronate 2.5 mg/kg; Ewha-18278 2.5, 5, 10 and 20 mg/kg; 28 days. The method, then:
The study was reviewed and approved by the Institutional Animal Care and Use Committee (IACUC) of Center for Laboratory Animal Sciences, Ewha Industry-University Cooperation Foundation, Ewha Womans University. Experimental methods were carried out in accordance with the approved ethic guidelines in Ewha Industry-University Cooperation Foundation, Ewha Womans University. Beginning 4 weeks after OVX, the female ddY mice received 2.5, 5, 10, or 20 mg/kg of #18–278, 2.5 mg/kg of risedronate, or vehicle once daily for 28 days. The Changes in body weight, bone weight, bone mineral density (BMD), failure load (FL), bone calcium (Ca), inorganic phosphorus (P) contents, histology and histomorphology were monitored. Serum osteocalcin and bone specific alkaline phosphatase (bALP) were monitored in mice receiving Ewha-18278.
R esi dronat e 2. 5mg/kg t reated mi ce […]
D ay after administration (d)
Supplementary Figure S7. Body weight changes in OVX mice. We selected eight mice per group showing more increases of body weights as compared with sham-operated mice and regarded as good OVX animals at four weeks after OVX surgery, consequently, significant increases of body weights were detected in all OVX groups as compared with sham control mice throughout 28 days of […]
mice, in the present study. Values are expressed mean ± S.D. of eight mice. Risedronate sodium was administered at 2.5mg/kg levels. […]

Data set [8] relates to Mature OCs. Briefly: TUNEL assay, apoptosis of OCs. The following applies: 10 μM, absence or presence of RANKL. It is filed as cell-based. The protocol:
Apoptotic cells were detected by the […] nick end labeling (TUNEL) assay In Situ Cell Death Detection Kit (Roche Applied Science, Basel, Switzerland) according to the manufacturer’s instructions. […] The percentage of positively stained cells was determined by counting the numbers of TUNEL labeled and DAPI stained cells. The experiments were repeated 3 times, and the mean values were calculated.
Supplementary Figure S5. […] Mature OCs were
generated with M-CSF and RANKL. Cells were washed with PBS and then treated with Ewha-18278
(10 μM) or DMSO with or without RANKL for 20 hours. Cells were subjected into TUNEL assay. Data […]

Broadly, the AUC(0-inf) is total exposure, with the tail of the curve extrapolated. Read a high AUC(0-inf) as more exposure. As usually defined, the AUC(0-t) is exposure summed from dosing to a finite time, without extrapolation to infinity. What is called half-life is the time in which the quantity being followed falls by half. Higher therefore signals slow loss. The term bioavailability denotes dose-corrected exposure relative to a reference, in per cent. One may read the Cmax as the peak of the concentration-time curve. What is called Tmax is the time from dosing to the highest level.

As to `CCCc1c(-c2ccccc2)nn(-c2ccccn2)c1O` [Ewha-18278, 3-phenyl-1-(pyridin-2-yl)-4-propyl-1H-5-hydroxypyrazole HCl], in the data set on BMMs [1] (RANKL 200 ng/ml 10 minutes), the “RANKL-mediated ROS generation” value is “reduced RANKL-mediated ROS generation in dose- and time-dependent manners”. In the data set on BMMs [1] (after 60 min), the “concentration at plateau of inhibition of RANKL-dependent ROS generation” value is 10 µM. The “activation of MAPKs (JNK, p38, ERK) and phosphorylation of IκBα” value in the data set on BMMs [2] is “suppressed activation”. In addition, the “bone resorption activity of OCs” value in the data set with Mature OCs [3] was “did not affect”. Besides, in the data set on BMMs [4], the “formation of TRAP-positive OCs with >3 nuclei” value is reported as “inhibited the formation of TRAP-positive OCs”. In data set [5] (IV 2 mg/kg), the Clt worked out at 250 ± 72.3 mL/h. Also, in data set [5] (compared to Ewha-89403), the oral availability entry is given as “high oral availability”. In data set [5] (rat, in vivo, IV 2 mg/kg), this molecule gave an AUC(0-inf) of 2150 ± 693 ng·h/mL, an AUC(0-t) of 1770 ± 697 ng·h/mL, a C0 of 7480 ± 3420 ng/mL and a Vd of 1.52 ± 1.17 L. This molecule gave a half-life in data set [5] (rat, in vivo, IV 2 mg/kg) of 4.07 ± 2.28 h. For the same molecule, in data set [5] (rat, in vivo, IV 2 mg/kg and oral 20 mg/kg, read-out: Absolute Bioavailability (BA)), the bioavailability worked out at 63.8%. Also, in data set [5] (rat, in vivo, oral 20 mg/kg), the area under the curve AUC(0-inf) is 14400 ± 8170 ng·h/mL, the AUC(0-t) was determined as 11300 ± 6470 ng·h/mL, the maximum concentration (Cmax) was determined as 5010 ± 2510 ng/mL and the Tmax was found to be 0.233 ± 0.171 h. Besides, in data set [5] (rat, in vivo, oral 20 mg/kg), the half-life was 14.4 ± 3.73 h. For the same molecule, the “BMD of femur compared to OVX control” value in data set [6] is given as “dramatic increased BMD”. In addition, the “body weights as compared with OVX control mice” value in data set [7] was “no meaningful changes”. Further, the “apoptosis of OCs” value with Mature OCs [8] is recorded as “had no effect on apoptosis”.
